Reference: patent publication US9216178B2, “Dry blend formulation of tetrahydrobiopterin” (BioMarin Pharmaceutical Inc., priority 2011, dated 2015)
Where a name gives a salt, the structure may show the parent alone.

Tests used:
[1] = Stability of BH4 dihydrochloride dry blend powder / sachet formulations; assay type: physicochemical; details: Initial time point
Experimental: Stability under different storage conditions were assessed and the potency of the active BH4 dihydrochloride is presented.
Certain embodiments of the sachet dosage forms of the present disclosure are illustrated in Table 18, with a comparison of the stability of different BH4 or BH4-related compounds packaged in foil pouches.

[2] = Clinical evaluation of BH4 capsules: drug levels in cerebrospinal fluid; assay type: in vivo; details: doses up to 40 mg/kg/day as a single dose; expected
Experimental: The clinical evaluation comprises two clinical studies.
A first study evaluates the relative bioavailability of BH4 dihydrochloride administered as a capsule in fasted conditions and after a meal in healthy subjects. Ascending doses of BH4 dihydrochloride up to 40 mg/kg/day are evaluated and drug levels in cerebrospinal fluid (CSF) are measured. […] Measurement of BH4 levels in CSF is expected to be indicative of BH4 availability in brain tissues.

physchem = assay type: physicochemical; details: water
Text: However, despite the commonality of wet granulation methods, it is not ideal for all blends. Specifically, BH4 dihydrochloride is moisture sensitive and will rapidly degrade in the presence of water. Furthermore, BH4 dihydrochloride is pH sensitive and commonly degrades in the presence of reducing sugars, flavoring agents, flavor enhancers, and aqueous solutions and thus wet blending of BH4 dihydrochloride with excipients can lead to degradation of the active ingredient. […] Accordingly, the dry blend method of producing a stable BH4 dihydrochloride powder sachet dosage is ideal.

[3] = children, after 6 months of treatment; cited from earlier work
[4] = children treated for 4, 8, and 12 weeks; cited from earlier work
[5] = room temperature, aqueous solutions; cited from earlier work

For `C[C@H](O)[C@H](O)[C@H]1CNc2[nH]c(N)nc(=O)c2N1.Cl.Cl` [100 μg/mL reference API], the “Degradation/impurity: BH2 (Dihydrobiopterin)” value [1] was 0.04 area %, the “Degradation/impurity: BH4” value [1] was 0.05 area % and the “Degradation/impurity: R-Tetrahydrobiolumazine” value [1] was 0.05 area %. The “Degradation/impurity: S-BH4” value [1] was 0.03 area %, the “Potency (%)” value [1] was 100.6% and the “Total Impurities (%)” value [1] was 0.17%.

With `C[C@H](O)[C@H](O)[C@H]1CNc2nc(N)[nH]c(=O)c2N1` [BH4 dihydrochloride, (6R)-L-erythro-5,6,7,8-tetrahydrobiopterin dihydrochloride] the “peak levels of BH4 in CSF” value [2] was “higher peak levels” and the solubility (physchem) was > 100 mg/mL.

In the case of `C[C@H](O)[C@H](O)[C@H]1CNc2nc(N)[nH]c(=O)c2N1` [BH4, (6R)-L-erythro-5,6,7,8-tetrahydrobiopterin], the social interaction scores [3] is given as “significant improvement”, the “total scores on the Parental Satisfaction Survey (PSS)” value [4] is given as “significant increases” and the shelf-life [5] is given as “less than 8 hours”.
